Assay results published in US9616033B2, “Selective metabolic approach to increasing oral bioavailability of phenylephrine and other phenolic bioactivities” (VIRGINIA COMMONWEALTH UNIVERSITY, priority 2011, dated 2017).
Entries after “also recorded” stand apart in the source; their conditions may differ.

How the values were obtained:
[1] = tested on: human LS180 intestinal cells; assay: Inhibition of phenylephrine (PE) metabolism (PE disappearance) in LS180 cells; format: cell-based; details: LS180 cells; for activity at 100 µM: Homo sapiens
Description: The inhibitors which can be used in the practice of the invention are wide ranging. […] The LS180 model provides an inexpensive method to imitate the human intestine, with regards to PE metabolism. […] For the LS180 experiments, LS180 cells are seeded at the concentration of 1.9×10^5 cells/ml in 12-well plate. […] After incubation, medium is removed and stored at −80° C. until analysis. The metabolic reactions are quenched by placing 12-well plate on ice and quickly rinsing each well. The cell extraction of metabolites is carried out with 1 ml 2% acetic acid solution in methanol. Cells are scraped and collected in centrifuge tubes. The suspension is mixed for 2-3 min and centrifuged at 18,000 rcf for 5 min. Supernatants (800 μl) are collected. After scraping, each well is washed twice as above. The washing solution is collected with the supernatant and dried under reduced pressure. The residue is re-suspended in 35 μl water and analyzed by HPLC. […] The data are processed with one-way ANOVA followed by Dunnett's post test; * indicates p<0.05.
Phenolic compounds were selected from FDA's “GRAS” list, approved food additives, or dietary supplements. LS180 cells were used as a model to test the effect of these phenolic compounds on the pre-systemic sulfation of PE. The cells were incubated in 0.5 ml medium with PE (50 μM)±inhibitor (100 μM) overnight. Extracellular buffer was collected and cells were extracted with methanol. PE was determined by reversed-phase HPLC with fluorescence detection. The formation of PE-sulfate was analyzed by LC-MS/MS. Results (n=3 per group) were analyzed by one-way ANOVA with Dunnett's post-test (p<0.05; Prism 5).

LS180 cells [2] = assay: Inhibition of 2-methoxyestradiol metabolism (disappearance) in LS180 cells; format: cell-based, human; details: 2-ME 10 μM, inhibitor 100 μM; for Extent of 2-ME Disappearance (as % of control) / activity at 100 µM: incubation time 1 hr (table); for activity at 100 µM: Homo sapiens, LS180, 1 h, read-out: Extent of 2-ME Disappearance (as % of control)
LS180 cells [3] = assay: Inhibition of resveratrol metabolism (disappearance) in LS180 cells; format: cell-based, human; details: resveratrol 25 μM, inhibitor 100 μM, LS180 cells; for activity at 100 µM: Homo sapiens, incubation 4 hr, read-out: Extent of RES Disappearance (as % of control)
[4] = Fenaroli, 2010; cited from earlier work
[5] = tested on: human LS180 intestinal cells; assay: Inhibition of PE sulfate formation in LS180 cells; format: cell-based; details: PE 50 μM ± inhibitor 100 μM, overnight, LC-MS/MS, read-out: PE-sulfate formation inhibited to (control=100%)
From the text: The inhibitors which can be used in the practice of the invention are wide ranging. Tables 1 and 2 show results with a number of different compounds which can function as inhibitors of SULT, MAO, CYP, COMT or UGT enzymes, or which otherwise may be used to increase the bioavailability of the exemplary bioactive phenylephrine. […] In Tables 1 and 2, human LS180 intestinal cells were used for screening the inhibition of PE metabolism. For the experiment which produced the results in Table 1, the concentration of PE was […]; the concentration of vitamin C (where present) was 1 mM; the total concentration of other inhibitors was 100 μM. Cells were incubated at 37° C. for 14 to 17.5 hours, as indicated. […] The residue is re-suspended in 35 μl water and analyzed by HPLC. All the samples are analyzed for PE by HPLC with a phenyl column (150×3.2 mm, 5 μm, 55° C.) at the flow rate of […] (20% methanol and 80% (aqueous 1% acetic acid)) and detected by fluorescence (excitation 270 nm, emission 305 nm). […]
Phenolic compounds were selected from FDA's “GRAS” list, approved food additives, or dietary supplements. […] PE was determined by reversed-phase HPLC with fluorescence detection. The formation of PE-sulfate was analyzed by LC-MS/MS. Results (n=3 per group) were analyzed by one-way ANOVA with Dunnett's post-test (p<0.05; Prism 5).

[6] = PE 50 μM ± inhibitor 100 μM, overnight, n=3, control=503±127 pmol/hr, read-out: extent of disappearance of PE (mean±SD, as % of control)
[7] = PE 50 μM, inhibitors total 100 μM, incubation 17.5 hr, read-out: Extent of PE Disappearance (as % of control)

**Q.** Which activity at 100 µM [1, 6] does the source give for `CC=Cc1ccc(O)c(OC)c1` [isoeugenol] here?
**A.** Its activity at 100 µM is 74 ± 8%.

**Q.** And the activity at 100 µM ([1]; PE 50 μM, inhibitors total 100 μM, incubation 19 hr, read-out: Extent of PE Disappearance (as % of control))?
**A.** The activity at 100 µM was 73.9%.

**Q.** With `Oc1ccc(C=Cc2cc(O)cc(O)c2)cc1` [resveratrol] as the molecule, how does the activity at 100 µM [1, 6] read?
**A.** Its activity at 100 µM is 14 ± 48%.

**Q.** What about the activity at 100 µM [1, 7] of the same molecule?
**A.** Its activity at 100 µM is 14.2%.

**Q.** For `O=CC=Cc1ccccc1` [cinnamaldehyde], which “Extent of 2-ME Disappearance (as % of control)” value (LS180 cells [2]) is on record?
**A.** The value was 93.9%.

**Q.** And the activity at 100 µM (LS180 cells [2])?
**A.** Its activity at 100 µM is 87.6%.

**Q.** Which results are given for `O=C(O)/C=C/c1ccc(O)c(O)c1` [caffeic acid]?
**A.** activity at 100 µM (LS180 cells [3]): 91.1%; activity at 100 µM (LS180 cells [2]): 93.3%

**Q.** Which activity at 100 µM (LS180 cells [3]) does the source give for `COc1cc(C(=O)O)ccc1O` [vanillic acid] here?
**A.** The activity at 100 µM was 103%.

**Q.** What about the activity at 100 µM (LS180 cells [2]) of the same molecule?
**A.** Its activity at 100 µM is 99.1%.

**Q.** Which activity at 100 µM ([1]; PE 50 μM, inhibitors total 100 μM (ascorbic acid 1 mM), incubation 14 hr, read-out: Extent of PE Disappearance (as % of control)) does the source give for `COc1cc(C=O)ccc1O` [vanillin] here?
**A.** Its activity at 100 µM is 90.2%.

**Q.** What about the “effect on PE disappearance / PE metabolism (in words)” value ([1]; PE 50 μM, inhibitor 100 μM, overnight) of the same molecule?
**A.** The value was “failed to inhibit PE metabolism alone; also recorded: no significant effect on PE disappearance”.

**Q.** What about the activity at 100 µM (LS180 cells [3]) of the same molecule?
**A.** The activity at 100 µM was 44.8%.

**Q.** And the “inhibition of resveratrol metabolism (in words)” value (LS180 cells [3]; 4 hours)?
**A.** The value was “significant inhibition”.

**Q.** What about the “inhibition of 2ME metabolism (in words)” value (LS180 cells [2]) of the same molecule?
**A.** The value was “Significant inhibition”.

**Q.** What about the “Extent of 2-ME Disappearance (as % of control)” value (LS180 cells [2]) of the same molecule?
**A.** Its value is 39.4%.

**Q.** And the activity at 100 µM (LS180 cells [2])?
**A.** The activity at 100 µM was 51.2%.

**Q.** What about the acceptable daily intake [4] of the same molecule?
**A.** The acceptable daily intake was 10 mg/kg/day.

**Q.** Which activity at 100 µM [1, 6] does the source give for `COc1ccccc1O` [guaiacol] here?
**A.** The activity at 100 µM was 51 ± 14%.

**Q.** And the activity at 100 µM ([1]; PE 50 μM, inhibitors total 100 μM, incubation 18.5 hr, read-out: Extent of PE Disappearance (as % of control))?
**A.** The activity at 100 µM was 51.3%.

**Q.** And the activity at 100 µM [5]?
**A.** The activity at 100 µM was 33 ± 7%.

**Q.** Which activity at 100 µM [1, 6] does the source give for `COc1cc(CCC(C)=O)ccc1O` [zingerone] here?
**A.** The activity at 100 µM was 52 ± 25%.

**Q.** What about the activity at 100 µM ([1]; PE 50 μM, inhibitors total 100 μM (ascorbic acid 1 mM), incubation 17 hr, read-out: Extent of PE Disappearance (as % of control)) of the same molecule?
**A.** Its activity at 100 µM is 52.4%.

**Q.** What about the activity at 100 µM (LS180 cells [3]) of the same molecule?
**A.** The activity at 100 µM was 83.7%.

**Q.** For `C[C@@H]1O[C@@H](O[C@H]2[C@H](Oc3cc(O)c4c(c3)O[C@H](c3ccc(O)cc3)CC4=O)O[C@H](CO)[C@@H](O)[C@@H]2O)[C@H](O)[C@H](O)[C@H]1O` [naringin], which activity at 100 µM [1, 7] is on record?
**A.** The activity at 100 µM was 75.7%.

**Q.** Which activity at 100 µM (LS180 cells [3]) does the source give for `O=C(/C=C/C=C/c1ccc2c(c1)OCO2)N1CCCCC1` [piperine] here?
**A.** Its activity at 100 µM is 26.4%.

**Q.** With `O=c1c(O)c(-c2ccc(O)c(O)c2)oc2cc(O)cc(O)c12` [quercetin] as the molecule, how does the activity at 100 µM [1, 7] read?
**A.** Its activity at 100 µM is 48.7%.
